Patent US8557796B2, “Substituted 1-oxa-2,8-diaza-spiro [4,5] dec-2-ene derivatives and related treatment methods” (Gruenenthal GmbH, priority 2001, dated 2013)

Biological target: T1, 5HT-uptake (Rattus norvegicus, UniProt P31652)
T1 construct: synaptosomes from rat brain regions were freshly isolated; from tissue; host or cells: P2 synaptosome fraction from rat brain regions
Test: Serotonin uptake inhibition (5HT uptake) in synaptosomes
Assay type: biochemical
Details: rat brain synaptosomes

T1 sequence (P31652 whole entry): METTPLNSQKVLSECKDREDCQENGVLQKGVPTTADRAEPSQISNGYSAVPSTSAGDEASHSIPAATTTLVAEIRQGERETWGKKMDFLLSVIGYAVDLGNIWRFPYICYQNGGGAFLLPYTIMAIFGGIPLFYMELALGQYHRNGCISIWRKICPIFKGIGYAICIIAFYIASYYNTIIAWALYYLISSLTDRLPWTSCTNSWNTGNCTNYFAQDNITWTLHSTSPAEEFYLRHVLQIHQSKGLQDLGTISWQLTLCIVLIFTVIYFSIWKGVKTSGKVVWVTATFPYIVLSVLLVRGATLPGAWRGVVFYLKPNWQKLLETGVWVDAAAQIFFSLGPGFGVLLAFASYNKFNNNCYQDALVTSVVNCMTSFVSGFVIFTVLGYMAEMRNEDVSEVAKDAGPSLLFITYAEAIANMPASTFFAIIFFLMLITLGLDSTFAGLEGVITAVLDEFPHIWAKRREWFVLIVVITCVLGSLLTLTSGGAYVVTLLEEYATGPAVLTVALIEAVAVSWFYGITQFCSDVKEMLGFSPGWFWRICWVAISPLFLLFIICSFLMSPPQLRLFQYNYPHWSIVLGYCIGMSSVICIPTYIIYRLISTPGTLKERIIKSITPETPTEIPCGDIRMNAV

SMILES | inhibition at 10 µM [%] | 5HT-uptake, 10 μM, % inhibition [%]
Cc1ccc(S(=O)(=O)N2CCC3(CC2)CC(C(=O)NCCN(C)C)=NO3)cc1 [Example 57, 8-(toluene-4-sulphonyl)-1-oxa-2,8-diaza-spiro[4,5]dec-2-ene-3-carboxylic acid (2-dimethylamino-ethyl)-amide] | 41 | 
CN1CCCC1CCNC(=O)C1=NOC2(CCN(S(=O)(=O)c3ccc(Cl)s3)CC2)C1 (centres unmarked) [Example 61, 8-(5-chloro-thiophene-2-sulphonyl)-1-oxa-2,8-diaza-spiro[4,5]dec-2-ene-3-carboxylic acid [2-(1-methyl-pyrrolidin-2-yl)-ethyl]-amide] | 72 | 
CCOC(=O)N1CCC(NC(=O)C2=NOC3(CCN(C(=O)c4ccc(Br)cc4)CC3)C2)CC1 [Example 62, 4-{[8-(4-bromo-benzoyl)-1-oxa-2,8-diaza-spiro[4,5]dec-2-ene-3-carbonyl]-amino)-piperidine-l-carboxylic acid ethyl ester] |  | 73
Cc1ccc(S(=O)(=O)N2CCC3(CC2)CC(C(=O)NCc2cc(Cl)cc(Cl)c2)=NO3)cc1 [Example 63, 8-(toluene-4-sulphonyl)-1-oxa-2,8-diaza-spiro[4,5]dec-2-ene-3-carboxylic acid 3,5-dichlorobenzylamide] | 55 | 
COc1cc(OC)cc(N2CCN(C(=O)C3=NOC4(CCN(S(=O)(=O)c5ccc(Cl)s5)CC4)C3)CC2)c1 [Example 71, [8-(5-chloro-thiophene-2-sulphonyl)-1-oxa-2,8-diaza-spiro[4,5]dec-2-en-3-yl]-[4-(3,5-dimethoxy-phenyl)-piperazin-l-yl]-methanone] |  | 43
CCCC(=O)N1CCC2(CC1)CC(C(=O)NC1CCN(C(=O)OCC)CC1)=NO2 [Example 74, 4-[(8-butyryl-1-oxa-2,8-diaza-spiro[4,5]dec-2-ene-3-carbonyl)-amino]-piperidine-l-carboxylic acid ethyl ester] |  | 43
Cc1cnc(C(=O)N2CCN(C(=O)C3=NOC4(CCN(S(=O)(=O)c5ccc(F)cc5)CC4)C3)CC2)cn1 [Example 76, [8-(4-fluoro-benzenesulphonyl)-1-oxa-2,8-diaza-spiro[4,5]dec-2-ene-3-yl]-[4-(5-methyl-pyrazine-2-carbonyl)-piperazin-1-yl]-methanone] | 42 | 
O=C(C1=NOC2(CCN(S(=O)(=O)c3cccc(C(F)(F)F)c3)CC2)C1)N1CCN(CCCc2ccccc2)CC1 [Example 83, [4-(3-phenyl-propyl)-piperazin-1-yl]-[8-(3-trifluoromethyl-benzenesulphonyl)-1-oxa-2,8-diaza-spiro[4,5]dec-2-en-3-yl]-methanone] | 52 | 
CCCC(=O)N1CCC2(CC1)CC(C(=O)Nc1ccccc1)=NO2 [Example 85, 8-butyryl-1-oxa-2,8-diaza-spiro[4,5]dec-2-ene-3-carboxylic acid phenylamide] | 41 | 
COCCOCC(=O)N1CCC2(CC1)CC(C(=O)NCc1ccccc1)=NO2 [Example 87, 8-[2-(2-methoxy-ethoxy)-acetyl]-1-oxa-2,8-diaza-spiro[4,5]dec-2-ene-3-carboxylic acid benzylamide] | 40 | 
Cc1cc(C(=O)N2CCC3(CC2)CC(C(=O)NCC(C)C)=NO3)ccc1Br [Example 88, 8-(4-bromo-3-methyl-benzoyl)-1-oxa-2,8-diaza-spiro[4,5]dec-2-ene-3-carboxylic acid isobutyl-amide] | 46 | 
O=C(C1=NOC2(CCN(S(=O)(=O)c3ccc(Cl)s3)CC2)C1)N1CCN(c2ccc(F)cc2)CC1 [Example 91, [8-(5-chloro-thiophene-2-sulphonyl)-1-oxa-2,8-diaza-spiro[4,5]dec-2-en-3-yl]-[4-(4-fluorophenyl)-piperazin-1-yl]-methanone] | 45 | 
CN(Cc1cccnc1)C(=O)C1=NOC2(CCN(S(=O)(=O)c3cc(Cl)ccc3Cl)CC2)C1 [Example 92, 8-(2,5-dichloro-benzenesulphonyl)-1-oxa-2,8-diaza-spiro[4,5]dec-2-ene-3-carboxylic acid methyl-pyridin-3-ylmethyl-amide] | 51 | 
O=C(Cc1ccc(F)c(F)c1)N1CCN(C(=O)C2=NOC3(CCN(S(=O)(=O)c4cccc(C(F)(F)F)c4)CC3)C2)CC1 [Example 93] |  | 42
N#CCCN(Cc1cccnc1)C(=O)C1=NOC2(CCN(S(=O)(=O)c3cc(Cl)ccc3Cl)CC2)C1 [Example 99, 8-(2,5-dichloro-benzenesulphonyl)-1-oxa-2,8-diaza-spiro[4,5]dec-2-ene-3-carboxylic acid (2-cyano-ethyl)-pyridin-3-ylmethyl-amide] | 44 | 
O=C(NCc1cccs1)C1=NOC2(CCN(C(=O)c3ccccc3Cl)CC2)C1 [Example 152, 8-(2-chloro-benzoyl)-1-oxa-2,8-diaza-spiro[4,5]dec-2-ene-3-carboxylic acid (thiophen-2-ylmethyl)-amide] | 41 | 

Other lines, results leading:

inhibition at 10 µM [%] | 5HT-uptake, 10 μM, % inhibition [%] | SMILES
52 |  | CCOC(=O)N1CCC(NC(=O)C2=NOC3(CCN(C(=O)c4ccc(F)cc4F)CC3)C2)CC1 [Example 56, 4-{[8-(2,4-difluoro-benzoyl)-1-oxa-2,8-diaza-spiro[4,5]dec-2-ene-3-carbonyl]-amino}-piperidine-1-carboxylic acid ethyl ester]
55 |  | CN(C)S(=O)(=O)N1CCC2(CC1)CC(C(=O)NCCc1ccc(Cl)cc1)=NO2 [Example 58, 8-dimethylsulphamoyl-1-oxa-2,8-diaza-spiro[4,5]dec-2-ene-3-carboxylic acid [2-(4-chlorophenyl)-ethyl]-amide]
 | 45 | COc1ccc(C(=O)N2CCC3(CC2)CC(C(=O)NCc2ccc(C)o2)=NO3)cc1 [Example 59]
65 |  | O=C(NCCc1ccc(Cl)cc1)C1=NOC2(CCN(S(=O)(=O)c3cccs3)CC2)C1 [Example 60, 8-(thiophene-2-sulphonyl)-1-oxa-2,8-diaza-spiro[4,5]dec-2-ene-3-carboxylic acid [2-(4-chlorophenyl)-ethyl]-amide]
40 |  | CCOC(=O)CCNC(=O)C1=NOC2(CCN(S(=O)(=O)CC34CCC(CC3=O)C4(C)C)CC2)C1 (centres unmarked) [Example 66, 3-{[8-(7,7-dimethyl-2-oxo-bicyclo[2.2.1]hept-1-ylmethane-sulphonyl)-1-oxa-2,8-diaza-spiro[4,5]dec-2-ene-3-carbonyl]-amino]-propionic acid ethyl ester]
52 |  | COc1ccc(CNC(=O)C2=NOC3(CCN(S(=O)(=O)c4cc(Cl)ccc4Cl)CC3)C2)cc1OC [Example 68, 8-(2,5-dichloro-benzenesulphonyl)-1-oxa-2,8-diaza-spiro[4,5]dec-2-ene-3-carboxylic acid 3,4-dimethoxy-benzylamide]
54 |  | CN(C)S(=O)(=O)N1CCC2(CC1)CC(C(=O)N1CCN(c3ncnc4sccc34)CC1)=NO2 [Example 70, 3-(4-thieno[2,3-d]pyrimidin-4-yl-piperazine-1-carbonyl)-1-oxa-2,8-diaza-spiro[4,5]dec-2-ene-8-sulphonic acid dimethylamide]
42 |  | CN(C)S(=O)(=O)N1CCC2(CC1)CC(C(=O)NCc1ccc(C(F)(F)F)c(F)c1)=NO2 [Example 72, 8-dimethylsulphamoyl-1-oxa-2,8-diaza-spiro[4,5]dec-2-ene-3-carboxylic acid 3-fluoro-4-trifluoromethyl-benzylamide]
41 |  | CN(C)S(=O)(=O)N1CCC2(CC1)CC(C(=O)NCc1ccc(F)cc1F)=NO2 [Example 77, 8-dimethylsulphamoyl-1-oxa-2,8-diaza-spiro[4,5]dec-2-ene-3-carboxylic acid 2,4-difluorobenzylamide]
46 |  | CCOC(=O)CCNC(=O)C1=NOC2(CCN(C(=O)c3cc(F)cc(F)c3)CC2)C1 [Example 81, 3-{[8-(3,5-difluoro-benzoyl)-1-oxa-2,8-diaza-spiro[4,5]dec-2-ene-3-carbonyl]-amino}-propionic acid ethyl ester]
42 |  | CCCS(=O)(=O)N1CCC2(CC1)CC(C(=O)NCC(C)C)=NO2 [Example 82, 8-(propane-1-sulphonyl)-1-oxa-2,8-diaza-spiro[4,5]dec-2-ene-3-carboxylic acid isobutyl-amide]
46 |  | O=C(NC1CCCCCCC1)C1=NOC2(CCN(S(=O)(=O)c3ccc(OC(F)(F)F)cc3)CC2)C1 [Example 86, 8-(4-trifluoromethoxy-benzenesulphonyl)-1-oxa-2,8-diaza-spiro[4,5]dec-2-ene-3-carboxylic acid cyclooctylamide]
48 |  | CCOC(=O)N1CCC(NC(=O)C2=NOC3(CCN(S(=O)(=O)c4cc([N+](=O)[O-])ccc4C)CC3)C2)CC1 [Example 90, 4-{[8-(2-methyl-5-nitro-benzenesulphonyl)-1-oxa-2,8-diaza-spiro[4,5]dec-2-ene-3-carbonyl]-amino}-piperidine-1-carboxylic acid ethyl ester]
57 |  | O=C(NCC1CC1)C1=NOC2(CCN(S(=O)(=O)c3cccc(C(F)(F)F)c3)CC2)C1 [Example 94, 8-(3-trifluoromethyl-benzenesulphonyl)-1-oxa-2,8-diaza-spiro[4,5]dec-2-ene-3 carboxylic acid cyclopropylmethyl-amide]
 | 54 | CCOC(=O)CCNC(=O)C1=NOC2(CCN(S(=O)(=O)c3cc([N+](=O)[O-])ccc3C)CC2)C1 [Example 95]
 | 43 | N#CCCN(CC1CCCO1)C(=O)C1=NOC2(CCN(S(=O)(=O)c3cc(Cl)ccc3Cl)CC2)C1 (centres unmarked) [Example 100]
67 |  | COc1ccc(S(=O)(=O)N2CCC3(CC2)CC(C(=O)NC(CC(C)C)C(=O)OC(C)(C)C)=NO3)cc1 (centres unmarked) [Example 147, 2-{[8-(4-methoxy-benzenesulphonyl)-1-oxa-2,8-diaza-spiro[4,5]dec-2-ene-3-carbonyl]-amino}-4-methyl-pentanoic acid tert-butyl ester]
 | 47 | CCOC(=O)CCNC(=O)C1=NOC2(CCN(C(=O)c3c(Cl)ccc(C)c3F)CC2)C1 [Example 148]
 | 48 | CCSCCNC(=O)C1=NOC2(CCN(C(=O)c3ccc(Br)cc3)CC2)C1 [Example 154]
